Results published in the NIST ThermoML archive (doi:10.1016/j.tca.2016.12.010).

Key:
[1] = xn = mol fraction of the nth substance listed; details: 94.9 kPa, Liquid, Vibrating tube method, x2 = 0
[2] = refractive index (Na D-line) (dimensionless); xn = mol fraction of the nth substance listed; details: 94.9 kPa, Liquid, (Schmidt +Haensch) refractometer (Model DSR lambda), x2 = 0
[3] = Liquid; for mass density: 94.9 kPa, Vibrating tube method; for vapor or sublimation pressure: Ebulliometric method (Recirculating still)
[4] = refractive index (Na D-line) (dimensionless); details: 94.9 kPa, Liquid, (Schmidt +Haensch) refractometer (Model DSR lambda)

Cc1ccccc1 [toluene] + CCCCCCCCO
Details | mass density, [1] [kg/m3] | refractive index, [2]
293.15 K | 866.68 | 1.49666
298.15 K | 861.74 | 1.49386
303.15 K | 857.39 | 1.49193
308.15 K | 851.69 | 1.48821
313.15 K | 847.82 | 1.48536
318.15 K | 842.88 | 1.48249
323.15 K | 838.42 | 1.47968
333.15 K | 828.94 | 1.47401

C1COCCN1 [tetrahydro-1,4-oxazine]
Details | mass density, [3] [kg/m3] | refractive index, [4] | vapor or sublimation pressure, [3] [kPa]
293.15 K | 999.54 | 1.45453 | –
303.15 K | 989.89 | 1.45031 | –
313.15 K | 979.82 | 1.44574 | –
323.15 K | 969.78 | 1.44113 | –
333.15 K | 959.74 | 1.43562 | –
343.91 K | – | – | 13.32
372.25 K | – | – | 39.99
387.57 K | – | – | 66.66
398.92 K | – | – | 94.9

CCCCCCCCO [octan-1-ol]
Details | mass density, [3] [kg/m3] | refractive index, [4]
293.15 K | 825.57 | 1.4295
298.15 K | 821.9 | 1.42748
303.15 K | 818.08 | 1.42561
308.15 K | 814.31 | 1.42369
313.15 K | 811.09 | 1.42169
318.15 K | 807.7 | 1.41973
323.15 K | 804.05 | 1.41783
333.15 K | 796.88 | 1.41407

CCCCCCCCCCO [decan-1-ol]
Details | mass density, [3] [kg/m3] | refractive index, [4] | vapor or sublimation pressure, [3] [kPa]
293.15 K | 830.01 | 1.43711 | –
303.15 K | 823.54 | 1.43332 | –
313.15 K | 816.13 | 1.42949 | –
323.15 K | 808.84 | 1.42564 | –
333.15 K | 801.43 | 1.42189 | –
436.56 K | – | – | 13.32
469.52 K | – | – | 39.99
487.85 K | – | – | 66.66
501.05 K | – | – | 94.9

Cc1ccccc1 [toluene]
Details | mass density, [3] [kg/m3] | refractive index, [4]
293.15 K | 866.68 | 1.49666
298.15 K | 861.74 | 1.49386
303.15 K | 857.39 | 1.49193
308.15 K | 851.69 | 1.48821
313.15 K | 847.82 | 1.48536
318.15 K | 842.88 | 1.48249
323.15 K | 838.42 | 1.47968
333.15 K | 828.94 | 1.47401

CCCCCCCCCCO [decan-1-ol] + C1COCCN1
Details | mass density, 293.15 K [kg/m3] | mass density, 303.15 K [kg/m3] | mass density, 313.15 K [kg/m3] | mass density, 323.15 K [kg/m3] | mass density, 333.15 K [kg/m3] | refractive index, 293.15 K | refractive index, 303.15 K | refractive index, 313.15 K | refractive index, 323.15 K | refractive index, 333.15 K
[1] | 830.01 | 823.54 | 816.13 | 808.84 | 801.43 | – | – | – | – | –
[2] | – | – | – | – | – | 1.43711 | 1.43332 | 1.42949 | 1.42564 | 1.42189
